Test results taken from US20220401415A1, “METHODS FOR TREATING NEUROLOGICAL DISORDERS WITH ALPHA1A-AR PARTIAL AGONISTS” (Curasen Therapeutics, Inc., priority 2019, published 2022).
Like-named read-outs stand apart in the source and are kept apart here.

What was measured:
α1A-AR receptor [1] = molecular target: T1, α1A-AR receptor (Homo sapiens, UniProt P35348); conditions: as compared to noradrenaline; FLIPR assay; Blue et al., Table 1; cited from earlier work
T1 sequence (P35348 1-466): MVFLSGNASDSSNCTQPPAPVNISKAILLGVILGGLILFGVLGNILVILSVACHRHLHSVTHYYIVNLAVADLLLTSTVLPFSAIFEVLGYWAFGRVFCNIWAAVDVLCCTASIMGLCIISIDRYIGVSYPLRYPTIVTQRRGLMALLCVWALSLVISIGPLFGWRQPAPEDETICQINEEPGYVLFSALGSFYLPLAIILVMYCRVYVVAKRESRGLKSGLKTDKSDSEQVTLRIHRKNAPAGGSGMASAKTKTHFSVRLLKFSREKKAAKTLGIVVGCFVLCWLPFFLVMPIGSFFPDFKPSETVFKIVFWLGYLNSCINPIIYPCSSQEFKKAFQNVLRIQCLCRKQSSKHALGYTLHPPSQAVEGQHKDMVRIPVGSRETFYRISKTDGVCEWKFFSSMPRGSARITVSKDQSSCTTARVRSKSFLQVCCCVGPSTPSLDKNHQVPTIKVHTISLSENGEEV

α1A-AR receptor [2] = molecular target: T1, α1A-AR receptor; conditions: as compared to noradrenaline; InsPs accumulation assay; Blue et al., Table 1; cited from earlier work
[3] = test system: neurogenic orthostatic hypotension (nOH) patients; assay: Treatment of patients having nOH (Example 1); type: in vivo, human; conditions: 5 mg oral tablets twice daily, follow-up after one week of treatment
Method: Patients between the age of 40 and 80 years old that have been diagnosed with symptomatic orthostatic hypotension due to pure autonomic failure, multiple system atrophy or Parkinson's disease (i.e., PD plus symptoms) present for treatment. At the time of presentation, autonomic function testing is conducted to confirm the diagnosis of autonomic dysfunction including sinus arrhythmia and the Valsalva maneuver.
The patients are given 5 mg dabuzalgron oral tablets and are instructed to take one tablet shortly after waking up in the morning and a second tablet 4-6 hours later each day.
Some patients return for a follow-up visit after one week of treatment. […] In the follow-up visit supine systolic blood pressure (SSBP) may be determined.

Row | SMILES | intrinsic activity (α1A-AR receptor [1]) | intrinsic activity (α1A-AR receptor [2]) | symptoms of nOH as compared to the first visit [3]
1 | Cc1c(OCC2=NCCN2)ccc(Cl)c1NS(C)(=O)=O.Cl [RO 115-1240 (dabuzalgron) HCl salt, N-[6-chloro-3-(4,5-dihydro-1H-imidazol-2-ylmethoxy)-2-methylphenyl]methanesulfonamide hydrochloride] | 0.51 | 0.27 | –
2 | Cc1c(OCC2=NCCN2)ccc(Cl)c1NS(C)(=O)=O [RO 115-1240 (dabuzalgron) free base, N-[6-chloro-3-(4,5-dihydro-1H-imidazol-2-ylmethoxy)-2-methylphenyl]methanesulfonamide] | – | 0.31 | symptoms of nOH improve
